Laboratory results published in patent US20260109721A1, “IONIZABLE CATIONIC LIPIDS INCORPORATING SILICON: SYNTHESIS AND LNP FORMULATION” (priority 2023, published 2026).

Experiment: LNP size, PDI and zeta potential by Dynamic Light Scattering (Method A)
Assay type: physicochemical
Details: LNP formulated with the lipid, DLS
Method: The synthesized lipids were tested in term of in vitro transfection efficacy and toxicity on HeLa cells. In order to perform the mentioned biological tests, appropriate LNPs had to be formulated from the synthesized lipids. The formulation technique was different in Method A and B. The particle size, polydispersity index (PDI) and zeta potential of resulting LNPs were determined by means of Dynamic Light Scattering technique (DLS). Prior to biological testing the encapsulation efficiency (EE) of the loaded LNPs was determined by using RiboGreen RNA assay. In case of Method A Luc mRNA while in case of Method B GFP mRNA was transfected into the cells. In parallel with the transfection experiments, toxicity of the investigated LNPs was determined, in case of Method A resazurin assay while in case of Method B MTT assay was used. Additionally, the toxicity of the lipids was investigated on HepG2 cells and IC50 values were determined.
• 1. If needed, prepare stock solutions by solving known amounts of lipid powder into an appropriate solvent. The recommended solvent is ethanol and the recommended concentration is typically in the range 10-50 mM. Higher concentrations are preferred to allow flexibility on mRNA-LNP concentration. • 2. Remove the lipid stock solutions from the −20° C. freezer. For long-term storage, −80° C. is used. • 3. Check the vials for precipitation, DOPE (CAS #4004-05-1) (20 mM) and DSPE-PEG (CAS #474922-26-4) (5 mM) may need a 5-30 minute incubation step at 37° C. with intermittent vortexing to resuspend all contents. […] As a last resort, lipids may be heated to 50° C. to resuspend, time should be kept as short as possible to prevent oxidation or other modifying or degradative processes. • 4. Mix the lipids by vortexing for 2 minutes. • 5. […] Cooling the solution prevent excessive evaporation of ethanol or similar solvents upon opening. • 6. Meanwhile, thaw the RNA samples, including the latest SecNLuc control, by inserting the frozen tube in a room temperature aluminium block. • 7. Prepare for each LNP-formulation with identical mRNA component, an RNA master mix according to Table 1 below in a fresh tube. Use of a master mix allows more precise comparison of lipid formulations relative to each other. Split the master mix over a number of fresh tubes equal to the number of samples+controls. Each tube contains 375 μl of mRNA in 10 mM Citrate pH 4.0. • 8. Prepare for each LNP formulation with identical lipid composition a Lipid master mix according to Table 1 below in a fresh tube, exclude the lipid of interest. Use of a master mix allows more precise comparison of the novel ionizable lipid relative to each other. Split the master mix over a number of fresh tubes equal to the number of samples+controls. Each tube contains 65.5 μl of lipid master mix. • 9. Add the ionizable lipid of interest to the equally divide lipid master mix. Mix well by pipetting up and down. Label the tube according to the ionizable lipid used. • 10. Power on the L1 FM (L1 Formulation Machine uses 2 high-speed syringe pumps to mix lipids in organic solvents with mRNA in acidic aquous solution to generate well-defined LNPs. The microfluidic mixing chip involves a dean-type structure performing the high-efficiency mixing at a total flow rate (TFR) of around 12 ml/min at a 3:1 mixing ratio) and allow it to do a calibration of motor positions.
• 18. Fill a fresh syringe (C) through a blunt 18G stainless steel needle with the previously prepared RNA mixture of step 6. The volume should be approximately 85% of total formulation volume+25 μl (dead-volume). Make sure to remove all air bubbles by tapping. • 19. Fill a fresh syringe (D) through a blunt 18G stainless steel needle with the Lipid master mix. The volume should be approximately […] of total formulation volume+25 μl (dead-volume). Again, Make sure to remove all bubbles. • 20. Attach the syringes in the correct orientation, syringe A on the left and syringe B on the right • 21.

| SMILES | PDI | Size (nm) | Zeta potential (mV) |
| --- | --- | --- | --- |
| CCCCC/C=C\C/C=C\CCCCCCCCOC(CCCCCCC/C=C\C/C=C\CCCCC)O[Si](C)(C)OCCCCCCN(CCCCO)CCCCO (stereo not drawn) [Example 62, (25Z,28Z)-15-((8Z,11Z)-heptadeca-8,11-dien-1-yl)-5-(4-hydroxybutyl)-13,13-dimethyl-12,14,16-trioxa-5-aza-13-silatetratriaconta-25,28-dien-1-ol] | 0.13 | 236.8 nm | −10.74 mV |
| CCCCC/C=C\C/C=C\CCCCCCCCOC(CCCCCCC/C=C\C/C=C\CCCCC)O[Si](C)(C)OCCCCCCN1CCCCC1CO (stereo not drawn) [Example 64, (1-((20Z,23Z)-10-((8Z,11Z)-heptadeca-8,11-dien-1-yl)-8,8-dimethyl-7,9,11-trioxa-8-silanonacosa-20,23-dien-1-yl)piperidin-2-yl)methanol] | 0.098 | 293.7 nm | −9.226 mV |
| CCCCC/C=C\C/C=C\CCCCCCCCOC(CCCCCN(C)CC(O)CO)O[Si](C)(C)OCCCCCCCC/C=C\C/C=C\CCCCC (stereo not drawn) [Example 66, (22Z,25Z)-4,12,12-trimethyl-10-(((9Z,12Z)-octadeca-9,12-dien-1-yl)oxy)-11,13-dioxa-4-aza-12-silahentriaconta-22,25-diene-1,2-diol] | 0.043 | 223.6 nm | −11.66 mV |
| C#CCN(C)CCCCCCO[Si](C)(C)OC(CCCCCCC/C=C\C/C=C\CCCCC)OCCCCCCCC/C=C\C/C=C\CCCCC (stereo not drawn) [Example 67, (20Z,23Z)-10-((8Z,11Z)-heptadeca-8,11-dien-1-yl)-N,8,8-trimethyl-N-(prop-2-yn-1-yl)-7,9,11-trioxa-8-silanonacosa-20,23-dien-1-amine] | 0.058 | 127.2 nm | −8.62 mV |
| CCCCC/C=C\C/C=C\CCCCCCCCOC(CCCCCCC/C=C\C/C=C\CCCCC)O[Si](C)(C)OCCCCCCN(C)Cc1cn(C2[C@H](O)O[C@H](CO)[C@@H](O)[C@@H]2O)nn1 (stereo partly drawn) [Example 68, (4R,5S,6R)-3-(4-((22Z,25Z)-12-((8Z,11Z)-heptadeca-8,11-dien-1-yl)-2,10,10-trimethyl-9,11,13-trioxa-2-aza-10-silahentriaconta-22,25-dien-1-yl)-1H-1,2,3-triazol-1-yl)-6-(hydroxymethyl)tetrahydro-2H-pyran-2,4,5-triol] | 0.081 | 109.9 nm | −6.380 mV |
| CCCCC/C=C\C/C=C\CCCCCCCCOC(CCCCCCC/C=C\C/C=C\CCCCC)O[Si](C)(C)OCCCCCCN1CCN(CCCCCCO[Si](C)(C)OC(CCCCCCC/C=C\C/C=C\CCCCC)OCCCCCCCC/C=C\C/C=C\CCCCC)CC1 (stereo not drawn) [Example 70, 1,4-bis((20Z,23Z)-10-((8Z,11Z)-heptadeca-8,11-dien-1-yl)-8,8-dimethyl-7,9,11-trioxa-8-silanonacosa-20,23-dien-1-yl)piperazine] | 0.061 | 171.4 nm | −10.47 mV |
| CCCCC/C=C\C/C=C\CCCCCCCCOC(CCCCCCC/C=C\C/C=C\CCCCC)O[Si](C)(C)OCCCCCCN(CCO)CCN(CCO)CCCCCCO[Si](C)(C)OC(CCCCCCC/C=C\C/C=C\CCCCC)OCCCCCCCC/C=C\C/C=C\CCCCC (stereo not drawn) [Example 71, (26Z,29Z)-16-((8Z,11Z)-heptadeca-8,11-dien-1-yl)-3-((20Z,23Z)-10-((8Z,11Z)-heptadeca-8,11-dien-1-yl)-8,8-dimethyl-7,9,11-trioxa-8-silanonacosa-20,23-dien-1-yl)-6-(2-hydroxyethyl)-14,14-dimethyl-13,15,17-trioxa-3,6-diaza-14-silapentatriaconta-26,29-dien-1-ol] | 0.103 | 166.6 nm | −11.09 mV |
| CCCCCCCC/C=C\CCCCCCCC(OCC(CCCCCCCC)SCCCCC)O[Si](C)(C)OCCCCCCN(CCO)CCO (stereo not drawn) [Example 72, (Z)-13-(heptadec-8-en-1-yl)-3-(2-hydroxyethyl)-11,11-dimethyl-16-octyl-10,12,14-trioxa-17-thia-3-aza-11-siladocosan-1-ol] | 0.17 | 84.37 nm | −14.24 mV |
| CCCCCCCC/C=C\CCCCCCCC(OCC(CCCCCCCC)SCCCCCCCCCC)O[Si](C)(C)OCCCCCCN(CCO)CCO (stereo not drawn) [Example 73, (Z)-13-(heptadec-8-en-1-yl)-3-(2-hydroxyethyl)-11,11-dimethyl-16-octyl-10,12,14-trioxa-17-thia-3-aza-11-silaheptacosan-1-ol] | 0.16 | 86.3 nm | −17.46 mV |
| CCCCCCCC/C=C\CCCCCCCC(OCCCCCCCCCCCC1CCCCC1)O[Si](C)(C)OCCCCCCN(CCO)CCO (stereo not drawn) [Example 74, (Z)-25-cyclohexyl-13-(heptadec-8-en-1-yl)-3-(2-hydroxyethyl)-11,11-dimethyl-10,12,14-trioxa-3-aza-11-silapentacosan-1-ol] | 0.19 | 73.11 nm | −9.76 mV |
| CCCCCCCC/C=C\CCCCCCCC(OCCC(C)CCCC(C)CCCC(C)CCCC(C)C)O[Si](C)(C)OCCCCCCN(CCO)CCO (stereo not drawn) [Example 75, (Z)-13-(heptadec-8-en-1-yl)-3-(2-hydroxyethyl)-11,11,17,21,25,29-hexamethyl-10,12,14-trioxa-3-aza-11-silatriacontan-1-ol] | 0.18 | 76.35 nm | −13.40 mV |
| CCCCCCCC/C=C\CCCCCCCC(OCCCCCCCCCCCCCCC(C)C)O[Si](C)(C)OCCCCCCN(CCO)CCO (stereo not drawn) [Example 76, (Z)-13-(heptadec-8-en-1-yl)-3-(2-hydroxyethyl)-11,11,29-trimethyl-10,12,14-trioxa-3-aza-11-silatriacontan-1-ol] | 0.2 | 108.4 nm | −19.39 mV |
| CCCCC/C=C\C/C=C\CCCCCCCCOC(CCCCCCC/C=C\C/C=C\CCCCC)O[Si](C)(C)OCCCCCCN(C)[C@H](CO)Cc1ccccc1 (stereo partly drawn) [Example 77, (2S,23Z,26Z)-2-benzyl-13-((8Z,11Z)-heptadeca-8,11-dien-1-yl)-3,11,11-trimethyl-10,12,14-trioxa-3-aza-11-siladotriaconta-23,26-dien-1-ol] | 0.05 | 90.59 nm | −10.95 mV |
| CCCCCCCC/C=C\CCCCCCCCOC(CCCCCCC/C=C\CCCCCCCC)O[Si](C)(C)OCCCCCCN(C)[C@H](CO)Cc1ccccc1 (stereo partly drawn) [Example 78, (2S,Z)-2-benzyl-13-((Z)-heptadec-8-en-1-yl)-3,11,11-trimethyl-10,12,14-trioxa-3-aza-11-siladotriacont-23-en-1-ol] | 0.10 | 92.14 nm | −19.77 mV |
| CCCCC/C=C\C/C=C\CCCCCCCCOC(CCCCCCC/C=C\C/C=C\CCCCC)O[Si](C)(C)OCCCCCCN(C)C (stereo not drawn) [Example 79, (20Z,23Z)-10-((8Z,11Z)-heptadeca-8,11-dien-1-yl)-N,N,8,8-tetramethyl-7,9,11-trioxa-8-silanonacosa-20,23-dien-1-amine] | 0.09 | 102.1 nm | −2425 mV |
| CCCCC/C=C\C/C=C\CCCCCCCCO[Si](C)(C)OC(CCCCCCC/C=C\C/C=C\CCCCC)OCCCN(C)C (stereo not drawn) [Example 80, (17Z,20Z)-5-((8Z,11Z)-heptadeca-8,11-dien-1-yl)-N,N,7,7-tetramethyl-4,6,8-trioxa-7-silahexacosa-17,20-dien-1-amine] | 0.11 | 90.19 nm | −26.51 mV |
